Assay results from paper PMC8308784, “Novel Purine Chemotypes with Activity against Plasmodium falciparum and Trypanosoma cruzi” (Pharmaceuticals, 2021).
Where two headings read alike, the source gives them in different places.

Key:
Format in all cases: cell-based
[1] = tested on: T. cruzi Tulahuen strain expressing β-galactosidase; assay: anti-T. cruzi dose-response growth inhibition assay (Vero cells plus trypomastigotes, CPRG readout); settings: anti-T. cruzi IC50 of non-progressed compounds, read-out: Dose-response assay IC50
Procedure: (§1) T. cruzi parasites from the Tulahuen strain (discrete typing unit (DTU) VI) expressing β-galactosidase were maintained in culture by the infection of LLC-MK2 cells in DMEM supplemented with 2% FBS and 1% penicillin–streptomycin–glutamine (PSG), as described in [52]. When free-swimming trypomastigotes were released to the culture medium, they were centrifuged for 7 min at 2500 rpm and allowed to swim out of the pellet. Trypomastigotes were used to maintain the parasite cycle, or for the performance of the antiparasitic assays.
(§2) T. cruzi growth was primarily analyzed under three different concentrations (100, 10, and 1 mM) of the 81 compounds. Conditions were tested in triplicate for every concentration. Z-values varied between 0.81 and 0.92 in the different plates analyzed. Selected compounds (34.6% potential hit rate) were further analyzed via standard growth inhibition assays. The Z-values of dose–response assays correlated with those previously reported. For both assays, Vero cells and trypomastigotes from the Tulahuen T. cruzi strain expressing β-galactosidase were harvested, centrifuged, and resuspended in DMEM without phenol red supplemented with 1% PSG, 2% FBS, 1 mM sodium pyruvate, and 25 mM HEPES. Vero cells and trypomastigotes were counted, diluted at a concentration of 1 × 10^6 cells/mL each, and mixed 1:1 (v/v). Then, 100 μL of that mixture was added per well to the plates already containing the compounds. Each well contained 50,000 host cells and 50,000 parasites, i.e., multiplicity of infection (MOI) = 1. BNZ was used as control of maximal drug growth inhibition in each round, whereas each plate contained its own negative control (maximum parasite growth; Vero cells plus parasites without drugs) and positive control (minimum parasite growth; trypomastigote forms alone marking an enzymatic zero time or baseline galactosidase activity). After four days at 37 °C, 50 µL of a PBS solution containing 0.25% NP40 and 500 µM chlorophenol red-β-D-galactopyranoside (CPRG) substrate were added per well [32]. Plates were incubated at 37 °C for 4 h, and their absorbance read out at 590 nm using an Epoch Gene5 spectrophotometer.
(§3) Absorbance values derived from the anti-T. cruzi assays and fluorescence values from the anti-P. falciparum and cell toxicity assays were normalized to the controls. In the primary screening at three fixed doses, the compounds’ inhibitory activity was expressed as a percentage of the negative control (100% parasitic growth). In dose–response assays, the compounds’ IC50 and TC50 values were determined with GraphPad Prism 7 software (version 7.00, 2016), using a non-linear regression analysis model defined by the following equation: Y=100 ÷(1+10^((LogIC50−X)×HillSlope))

P. falciparum 3D7 = assay: P. falciparum primary screening at three fixed concentrations; settings: average of at least three experiments; for activity at 1 µM / activity at 10 µM / activity at 100 µM: Plasmodium falciparum, read-out: Primary screening, parasite growth relative to the negative control; for activity at 1 µM: 3D7, compound at 1 µM; for activity at 10 µM: 3D7, compound at 10 µM; for activity at 100 µM: 3D7, compound at 100 µM
Procedure: Apicomplexan parasite cultures were maintained at 3% hematocrit under an atmosphere of 37 °C in 93% N2, 5% CO2, and 2% O2, following standard methods. Synchronized cultures were obtained via 5% sorbitol lysis.
[…] Conditions were tested in triplicate for every concentration, and the test was repeated when the standard deviation was above 10% for any concentration. Z-values varied between 0.83 and 0.98 in the different plates analyzed. Selected compounds (12.3% potential hit rate) were further analyzed via standard growth inhibition assays, carried out as previously described in [54]. Briefly, parasitemia was adjusted to 1–1.3%, with >90% rings after sorbitol synchronization. Two hundred microliters of parasite culture were plated in 96-well microplates and incubated for 48 h at 37 °C in the presence of decreasing concentrations of the tested compounds, in triplicate. Parasitemia was determined by fluorescence-assisted cell sorting (FACS). Non-infected RBCs and samples containing parasitized RBCs (including controls with DMSO as carrier solvent) were diluted in PBS to a final concentration of ~1–10 × 10^6 cells/mL. The cell suspension was stained with SYTO 11 (0.5 mM stock in DMSO, Thermo Fisher Scientific, Waltham, MA, USA), to a final concentration of 0.5 μM. Samples were analyzed in a Becton Dickinson FACSCalibur. Sample excitation was carried out using a 488-nm, air-cooled argon-ion laser at a power of 15 mW, using forward and side scatter to gate the RBC population, and SYTO 11 green fluorescence (530 nm, FITC filter) was collected in a logarithmic scale. The single-cell population was selected on a forward–side scattergram, and the green fluorescence from this population was analyzed. Parasitemia was expressed as the number of parasitized cells per 100 erythrocytes.
as §3

[2] = tested on: T. cruzi Tulahuen strain expressing β-galactosidase; assay: T. cruzi primary screening at three fixed concentrations
Procedure: as §1
as §2, with “T. cruzi growth was primarily analyzed under three different concentrations (100, 10, and 1 mM) of the 81 compounds.” left out
as §3

[3] = compound at 1 µM, average of at least three independent experiments
[4] = compound at 10 µM, average of at least three independent experiments

Compound	IC50 ([1]; Trypanosoma cruzi, TULAHUEN, Vero)	activity at 1 µM (P. falciparum 3D7)	activity at 10 µM (P. falciparum 3D7)	activity at 100 µM (P. falciparum 3D7)	activity at 100 µM ([2]; Trypanosoma cruzi, TULAHUEN, read-out: Primary screening, growth inhibition values at 100 µM)	activity at 1 µM ([2]; Trypanosoma cruzi, TULAHUEN, compound at 1 µM, average of at least three independent experiments, read-out: Primary screening, growth inhibition values at 1 µM)	activity at 10 µM ([2]; Trypanosoma cruzi, TULAHUEN, compound at 10 µM, average of at least three independent experiments, read-out: Primary screening, growth inhibition values at 10 µM)	Primary screening, parasite growth relative to the negative control (P. falciparum 3D7; compound at 1 µM)	Primary screening, parasite growth relative to the negative control (P. falciparum 3D7; compound at 10 µM)	Primary screening, parasite growth relative to the negative control (P. falciparum 3D7; compound at 100 µM)	Primary screening, growth inhibition values at 1 µM [2, 3]	Primary screening, growth inhibition values at 10 µM [2, 4]	IC50 [1]
CC(C)(C)Nc1ncnc2c1nc(-c1ccccc1)n2C(C)(C)C [Compound 1B]	68.4 µM	112%	108%	69.5%	12.7%	96.3%	93%						
Cc1nc2c(NC(C)(C)C)ncnc2n1C(C)(C)C [Compound 2A]								110.87%	112.26%	30.73%	96.86	88.71	
CC(C)(C)Nc1ncnc2c1ncn2C(C)(C)C [Compound 3F]								110.21%	108.90%	35.36%			64.7 µM
Cc1nc2c(OCc3ccccc3)ncnc2n1N(C)C [Compound 4M]								100.27%	101.23%	88.99%	88.68	89.08	
CN(C)n1c(-c2ccccc2)nc2c(OCc3ccccc3)ncnc21 [Compound 4]								97.86%	97.42%	96.42%	94.81	89.88	
c1ccc(COc2ncnc3c2ncn3N2CCCCC2)cc1 [Compound 13H]								100.86%	97.31%	67.76%	92.39	93.99	
Cc1nc2c(OCc3ccccc3)ncnc2n1N1CCCCC1 [Compound 13M]								101.41%	100.79%	87.03%	91.73	92.01	
c1ccc(COc2ncnc3c2nc(-c2ccccc2)n3N2CCOCC2)cc1 [Compound 21]								96.68%	87.35%	81.22%			34.8 µM
Cc1nc2c(OCc3ccccc3)ncnc2n1N1CCOCC1 [Compound 22]								97.98%	78.53%	73.65%			
c1ccc(COc2ncnc3c2ncn3N2CCOCC2)cc1 [Compound 23]								101.16%	104.67%	98.97%	93.82	94.90	
CN1CCN(n2c(-c3ccccc3)nc3c(OCc4ccccc4)ncnc32)CC1 [Compound 27]								97.79%	87.07%	63.16%			33.2 µM
Cc1nc2c(OCc3ccccc3)ncnc2n1N1CCN(C)CC1 [Compound 28]								90.78%	89.44%	44.36%			40.4 µM
CCOc1ncnc2c1ncn2C(C)C [MJ1]								102.27%	99.79%	94.06%	94.41	97.93	
Cc1nc2c(OCc3ccccc3)ncnc2n1C(C)C [MJ5]		100%	94.6%	88.5%							89.81	90.91	
CCOc1ncnc2c1ncn2Cc1ccccc1 [MJ7]		104%	105%	53.8%							79.69	95.54	
CCOc1ncnc2c1nc(C)n2Cc1ccccc1 [MJ8]								107.34%	100.82%	82.46%			67.9 µM
CC(C)Oc1ncnc2c1ncn2C(C)C [MJ16]		111%	115%	102%							100.79	96.93	
Cc1nc2c(OC(C)C)ncnc2n1C(C)C [MJ17]								105.71%	108.49%	94.00%	97.87	93.73	
CCOc1ncnc2c1ncn2C(C)(C)C [MJ24]								103.15%	102.53%	74.90%			96.6 µM
